Measured values reported in publication PMC12567066, “Sustainable Synthesis of 1,2-Disubstituted Benzimidazoles as Promising α-Glucosidase Inhibitors: In Vitro and In Silico Evaluation” (Pharmaceuticals, 2025).
Entries after “also recorded” stand apart in the source; their conditions may differ. Like-named read-outs stand apart in the source and are kept apart here.

Tests used:
[1] = tested on: insulin-degrading enzyme (IDE); parameters: method as in PMID 22355395; conditions: towards insulin and β-amyloid, cited from earlier work
[2] = DPPH radical scavenging assay; conditions: mean ± SD, three independent experiments
Description: Radical scavenging activity of the better derivatives was estimated according to the previously reported method with slight modification using the stable DPPH radical.
A solution of 0.1 mM DPPH• radical was added to various concentrations of compounds. The reaction mixture was incubated in the dark for 15 min and, thereafter, the absorbance was recorded at 517 nm (VANTAstar_BMG LABTECH GmbH, Germany). The decrease in absorbance of DPPH•, after addition of test compounds compared to the control, was used to calculate the antioxidant activity.
(§1) For each assay, the decrease in absorbance was used to calculate the antioxidant activity, which was expressed as the ability of the antioxidants to scavenge 50% of radical (EC50).

Caco-2 cells = assay: Cell viability MTT assay; assay type: cell-based, human; conditions: 1–30 μM, 24 h
Description: Cells were treated with different concentrations of the compounds (1–30 μM) for 24 h and examined using the MTT assay.
The cellular cytotoxicity of compounds was investigated using a 3-(4,5-dimethylthiazol-2-yl)-2,5-diphenyl-tetrazolium bromide (MTT) assay as previously reported, with minor modifications. The CaCo-2 were exposed for 24 h to compounds at concentrations ranging from […]. Then, MTT reagent (0.5 mg/mL in DMEM) was added to each well. The plate was incubated for 3 h at 37 °C. The MTT solution was removed from the culture plate, and 100 μL of DMSO solvent was added to solubilize the water-insoluble formazan crystals formed in the cells. The absorbance was determined at 570 nm using a microplate reader (VANTAstar_BMG LABTECH GmbH, Ortenberg, Germany).

[3] = ABTS radical scavenging assay; conditions: mean ± SD, three independent experiments
Description: This method is based on the capacity of an antioxidant to scavenge the free radical ABTS^+ [50].
Samples of each compound (5 μL) were added to 245 μL of ABTS solution. The reduction in the blue-green radical ABTS^+ by hydrogen-donating antioxidants was evaluated by measuring the absorbance at 734 nm (VANTAstar_BMG LABTECH GmbH, Ortenberg, Germany), after one minute of incubation. All the measurements were carried out at least three times.
as §1

α-glucosidase = α-glucosidase (Saccharomyces cerevisiae, UniProt P53341); assay: biochemical; conditions: for inhibition at 50 µM: 0.25 h; for α-Glucosidase % inib. at 50 μM: 15 min
Sequence of α-glucosidase (P53341 whole entry): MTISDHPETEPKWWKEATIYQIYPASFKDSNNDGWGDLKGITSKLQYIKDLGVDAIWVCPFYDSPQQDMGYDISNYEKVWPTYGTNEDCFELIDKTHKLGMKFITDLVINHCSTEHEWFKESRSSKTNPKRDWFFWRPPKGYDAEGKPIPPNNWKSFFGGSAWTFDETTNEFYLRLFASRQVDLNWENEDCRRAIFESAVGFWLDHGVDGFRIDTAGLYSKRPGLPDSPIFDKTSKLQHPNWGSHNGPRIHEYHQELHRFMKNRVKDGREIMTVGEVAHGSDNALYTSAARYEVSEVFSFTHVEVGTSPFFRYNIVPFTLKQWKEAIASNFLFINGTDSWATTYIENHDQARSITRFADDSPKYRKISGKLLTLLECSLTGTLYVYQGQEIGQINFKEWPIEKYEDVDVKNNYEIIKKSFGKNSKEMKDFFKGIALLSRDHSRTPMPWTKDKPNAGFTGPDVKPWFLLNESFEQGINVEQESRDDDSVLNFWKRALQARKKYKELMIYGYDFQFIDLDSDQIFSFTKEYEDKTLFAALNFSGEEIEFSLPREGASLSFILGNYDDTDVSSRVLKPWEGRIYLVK
Description: The α-glucosidase assay was performed as previously described. The enzyme from Saccharomyces cerevisiae (0.125 U/mL) solution was dissolved in 0.1 M sodium phosphate buffer (pH 6.8). Twenty microliters of test samples at various concentrations (0.005–50 μM) were mixed with the enzyme solution in microplate wells and incubated for 15 min at 37 °C. Subsequently, 20 μL of […] p-nitrophenyl α-D-glucopyranoside (pNPG) solution in 0.1 M phosphate buffer was added. After incubation at 37 °C for 15 min, the reaction was terminated by adding 50 μL of 0.2 M sodium carbonate solution. α-Glucosidase activity was determined spectrophotometrically at 405 nm on a 96-well microplate reader Fluostar (BMG LABTECH GmbH, Offenburg, Germany) by measuring the amount of p-nitrophenol released. DMSO control was used whenever required and the final concentration of DMSO was maintained below 8% v/v, which was found not to affect the enzyme activity. The IC50 values were determined by the interpolation of dose–response curves (Figure S2, Supplementary Material).
(§2) The percentage of inhibition of enzyme activity, for both enzymes, was calculated as (%) by the following equation: A−B/A × 100, where A represents the difference in the absorbance of the control sample between an incubation time of 0 and 1.0 min, and B represents the test sample’s absorbance difference in the same time range.

[4] = molecular target: T1, α-amylase from porcine pancreas (Sus scrofa, UniProt P00690); assay: α-amylase inhibition assay (CNPG3 substrate); assay type: biochemical; conditions: 10 min, pH 7, mean ± SD, three independent assays, read-out: α-Amylase % inib. at 50 μM
T1 construct: 40 μL of α-amylase from porcine pancreas (1 mg/mL) was used; from tissue; host or cells: porcine pancreas
T1 sequence (P00690 16-511): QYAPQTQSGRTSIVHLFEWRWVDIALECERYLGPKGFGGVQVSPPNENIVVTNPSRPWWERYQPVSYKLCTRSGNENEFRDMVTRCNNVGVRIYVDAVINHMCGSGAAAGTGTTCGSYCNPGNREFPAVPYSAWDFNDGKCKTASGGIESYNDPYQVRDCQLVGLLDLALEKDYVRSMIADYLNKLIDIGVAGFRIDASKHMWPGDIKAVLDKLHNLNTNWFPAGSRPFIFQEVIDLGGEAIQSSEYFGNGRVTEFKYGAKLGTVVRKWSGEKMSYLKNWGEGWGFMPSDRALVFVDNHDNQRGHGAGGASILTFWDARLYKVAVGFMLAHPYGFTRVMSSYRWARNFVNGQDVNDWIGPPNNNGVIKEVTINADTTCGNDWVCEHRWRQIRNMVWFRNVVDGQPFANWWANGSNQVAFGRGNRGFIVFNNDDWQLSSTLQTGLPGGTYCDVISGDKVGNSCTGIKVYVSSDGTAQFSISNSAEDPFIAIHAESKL
Description: The α-amylase assay was conducted as described in previous studies. A reaction mix containing 60 μL of […] sodium phosphate buffer at pH 7.0, 20 μL of 1 M NaCl and 40 μL of α-amylase from porcine pancreas (1 mg/mL) was used. The solution was incubated in the absence or presence of compounds at 37 °C for 10 min. After incubation, 80 μL of a 2.5 μM 2-chloro-4-nitrophenyl α-D-maltotrioside (CNPG3) solution was added as the substrate and 2-chloro-nitrophenol released by the enzymatic hydrolysis was monitored at 405 nm, using a microplate reader (Fluostar BMG LABTECH GmbH, Offenburg, Germany). The results of all the assays described above were expressed as a percentage of the blank control.
as §2

hPreP = tested on: hPreP; parameters: method as in PMID 24602793; conditions: cited from earlier work
V. cholerae = conditions: cited from earlier work
S. dysenteriae = conditions: cited from earlier work
B. cereus = tested on: B. cereus; parameters: method as in PMID 22047695; conditions: cited from earlier work
[5] = mean ± SD, three independent assays, read-out: α-Glucosidase IC50
[6] = pH 6.8, 50 μM, mean ± SD, three independent assays, read-out: α-Glucosidase % inib. at 50 μM
[7] = 50 μM, mean ± SD, three independent assays

## O=[N+]([O-])c1cc(Cn2c(-c3ccc(Cl)c([N+](=O)[O-])c3)nc3ccccc32)ccc1Cl [3k, 1-(4-Chloro-3-nitrobenzyl)-2-(4-chloro-3-nitrophenyl)-1H-benzo[d]imidazole]
[1]
  Effect on IDE activity: actively stimulate IDE activity
[1]; listed as IV
  Effect on IDE activity: improves the activity of insulin-degrading enzyme (IDE)

## Cc1cccc2c1nc(-c1ccc(Cl)c([N+](=O)[O-])c1)n2Cc1ccc(Cl)c([N+](=O)[O-])c1 [8k, 1-(4-Chloro-3-nitrobenzyl)-2-(4-chloro-3-nitrophenyl)-4-methyl-1H-benzo[d]imidazole]
[2]
  DPPH EC50: no detectable antioxidant activity
Caco-2 cells
  Cytotoxicity / effect on Caco-2 cell viability: none of these compounds affected Caco-2 cell viability; also recorded: no cytotoxic effects
[3]
  ABTS EC50: no detectable antioxidant activity
α-glucosidase
  IC50: 7.1 µM
α-glucosidase; pH 6.8, read-out: α-Glucosidase % inib. at 50 μM
  inhibition at 50 µM: 71.2%

## Cc1cccc2c1nc(-c1cc(O)ccc1O)n2Cc1cc(O)ccc1O [8r, 2-(1-(2,5-Dihydroxybenzyl)-4-methyl-1H-benzo[d]imidazol-2-yl)benzene-1,4-diol]
[2]
  EC50: 11.4 ± 1.2 µM
Caco-2 cells
  Cytotoxicity / effect on Caco-2 cell viability: none of these compounds affected Caco-2 cell viability; also recorded: no cytotoxic effects
[3]
  EC50: 13 ± 0.2 µM
α-glucosidase; [5]
  IC50: 13.8 ± 2.7 µM

## Cc1cccc2c1nc(-c1cc(O)c(O)c(O)c1)n2Cc1cc(O)c(O)c(O)c1 [8s, 5-(4-Methyl-1-(3,4,5-trihydroxybenzyl)-1H-benzo[d]imidazol-2-yl)benzene-1,2,3-triol]
[2]
  EC50: 7.4 ± 0.2 µM
Caco-2 cells
  Cytotoxicity / effect on Caco-2 cell viability: none of these compounds affected Caco-2 cell viability; also recorded: no cytotoxic effects
[3]
  EC50: 4.6 ± 0.2 µM
α-glucosidase; [6]
  inhibition at 50 µM: 97.5%
α-glucosidase; [5]
  IC50: 0.39 ± 0.04 µM

## O=[N+]([O-])c1cc(Cn2c(-c3ccc(Cl)c([N+](=O)[O-])c3)nc3ccccc32)ccc1Cl [C00031]
[4]
  inhibition at 50 µM: 10.2 ± 6.41%
α-glucosidase; [6]
  inhibition at 50 µM: 9.2 ± 1.6%

## Cc1cccc2c1nc(-c1ccc(Cl)c([N+](=O)[O-])c1)n2Cc1ccc(Cl)c([N+](=O)[O-])c1 [C00032]
[4]
  inhibition at 50 µM: 14 ± 0.15%
α-glucosidase; [7]
  α-Glucosidase % inib. at 50 μM: 71.2 ± 11.4%

## O=[N+]([O-])c1cc(Cn2c(-c3ccc(Cl)c([N+](=O)[O-])c3)nc3cc(Cl)ccc32)ccc1Cl [C00033]
[4]
  inhibition at 50 µM: 15.8 ± 0.5%
α-glucosidase; [6]
  inhibition at 50 µM: 17.3 ± 0.4%

## COc1ccccc1Cn1c(-c2ccccc2OC)nc2c(C)cccc21 [C00034]
[4]
  inhibition at 50 µM: 3.2 ± 2.3%
α-glucosidase; [6]
  inhibition at 50 µM: 35.3 ± 6.8%

## Cc1cccc2c1nc(-c1ccc(O)c([N+](=O)[O-])c1)n2Cc1ccc(O)c([N+](=O)[O-])c1 [C00035]
[4]
  inhibition at 50 µM: 4.3 ± 2.1%
α-glucosidase; [6]
  inhibition at 50 µM: 3.7 ± 1.4%

## Cc1cccc2c1nc(-c1ccc(Br)c(Br)c1)n2Cc1ccc(Br)c(Br)c1 [C00036]
[4]
  inhibition at 50 µM: 35.7 ± 3%
α-glucosidase; [6]
  inhibition at 50 µM: 38.2 ± 7.4%

## Cc1cccc2c1nc(-c1cc(O)ccc1O)n2Cc1cc(O)ccc1O [C00037]
[4]
  inhibition at 50 µM: 1.3 ± 0.3%
α-glucosidase; [6]
  inhibition at 50 µM: 94.2 ± 2.8%

## Cc1cccc2c1nc(-c1cc(O)c(O)c(O)c1)n2Cc1cc(O)c(O)c(O)c1 [C00038]
α-glucosidase; [7]
  α-Glucosidase % inib. at 50 μM: 97.5 ± 0.5%

## Cc1cccc2c1nc(-c1ccc(Cl)c([N+](=O)[O-])c1)n2Cc1ccc(Cl)c([N+](=O)[O-])c1 [C00039]
α-glucosidase; read-out: α-Glucosidase IC50, mean ± SD, three independent assays
  IC50: 7.1 ± 2.1 µM

## Cc1cccc2c1nc(-c1cc(O)c(O)c(O)c1)n2Cc1cc(O)c(O)c(O)c1 [C00041]
α-glucosidase; [5]
  IC50: 0.39 ± 0.04 µM

## O=[N+]([O-])c1ccc2c(c1)nc(-c1cc(Br)ccc1O)n2Cc1cc(Br)ccc1O [III]
hPreP
  hPreP agonism: potent hPreP agonist

## Oc1ccc(Br)cc1Cn1c(-c2cc(Br)ccc2O)nc2ccccc21 [II]
V. cholerae
  Antibacterial activity: particularly active
S. dysenteriae
  Antibacterial activity: particularly active
B. cereus
  Antibacterial activity: particularly active

## c1ccc(Cn2c(-c3ccccc3)nc3ccccc32)cc1 [I]
V. cholerae
  Antibacterial activity: particularly active
S. dysenteriae
  Antibacterial activity: particularly active
B. cereus
  Antibacterial activity: particularly active

## Cc1c(C)c2c(c(C)c1O)CCC(C)(C(=O)O)O2 (stereo not drawn) [Trolox, reference compound]
[2]
  EC50: 25.3 ± 0.9 µM
[3]
  EC50: 24.4 ± 0.2 µM
